From PubChem BioAssay (NCI)
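GI50 is the concentration that inhibits growth by half. TGI: total growth inhibition.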

Tests used:
Assay in all cases: DTP human tumour cell line panel, 384-well format
786-0 renal = tested on: 786-0 renal
MDA-MB-468 breast = tested on: MDA-MB-468 breast
HCT-15 colon = tested on: HCT-15 colon
A498 renal = tested on: A498 renal
NCI-H322M lung = tested on: NCI-H322M lung
SK-MEL-5 melanoma = tested on: SK-MEL-5 melanoma
HOP-62 NSCLC = tested on: HOP-62 NSCLC
U251 glioblastoma = tested on: U251 glioblastoma
SK-OV-3 ovarian = tested on: SK-OV-3 ovarian
SW-620 colon = tested on: SW-620 colon
OVCAR-4 ovarian = tested on: OVCAR-4 ovarian
ACHN renal = tested on: ACHN renal
IGROV1 ovarian = tested on: IGROV1 ovarian
MDA-MB-435 melanoma = tested on: MDA-MB-435 melanoma
KM12 colon = tested on: KM12 colon
TK-10 renal = tested on: TK-10 renal
HL-60(TB) leukemia = tested on: HL-60(TB) leukemia
T-47D breast = tested on: T-47D breast
CCRF-CEM leukemia = tested on: CCRF-CEM leukemia
LOX IMVI melanoma = tested on: LOX IMVI melanoma
MDA-MB-231 breast = tested on: MDA-MB-231 breast
OVCAR-8 ovarian = tested on: OVCAR-8 ovarian
SNB-19 CNS = tested on: SNB-19 CNS
SF-295 CNS = tested on: SF-295 CNS
HOP-92 NSCLC = tested on: HOP-92 NSCLC
HS 578T breast = tested on: HS 578T breast
A549 NSCLC = tested on: A549 NSCLC
UACC-257 melanoma = tested on: UACC-257 melanoma
SNB-75 CNS = tested on: SNB-75 CNS
PC-3 prostate = tested on: PC-3 prostate
EKVX NSCLC = tested on: EKVX NSCLC
NCI-H460 NSCLC = tested on: NCI-H460 NSCLC
NCI/ADR-RES ovarian = tested on: NCI/ADR-RES ovarian
MCF7 breast = tested on: MCF7 breast
HCC-2998 colon = tested on: HCC-2998 colon
UACC-62 melanoma = tested on: UACC-62 melanoma
MALME-3M melanoma = tested on: MALME-3M melanoma
SF-539 CNS = tested on: SF-539 CNS
UO-31 renal = tested on: UO-31 renal
RXF 393 renal = tested on: RXF 393 renal
OVCAR-3 ovarian = tested on: OVCAR-3 ovarian
COLO 205 colon = tested on: COLO 205 colon
SK-MEL-28 melanoma = tested on: SK-MEL-28 melanoma
RPMI-8226 leukemia = tested on: RPMI-8226 leukemia
NCI-H226 lung = tested on: NCI-H226 lung
HCT-116 colon = tested on: HCT-116 colon
K-562 leukemia = tested on: K-562 leukemia
HT29 colon = tested on: HT29 colon
NCI-H23 lung = tested on: NCI-H23 lung
SF-268 CNS = tested on: SF-268 CNS
DU-145 prostate = tested on: DU-145 prostate
CAKI-1 renal = tested on: CAKI-1 renal
OVCAR-5 ovarian = tested on: OVCAR-5 ovarian
NCI-H522 lung = tested on: NCI-H522 lung
SN12C renal = tested on: SN12C renal
M14 melanoma = tested on: M14 melanoma
MOLT-4 leukemia = tested on: MOLT-4 leukemia
BT-549 breast = tested on: BT-549 breast

CN1CCN(c2ccc(C(=O)Nc3cc(-c4cccc(NS(=O)(=O)c5ccccc5)c4)[nH]n3)cc2)CC1 gave a GI50 ([…]-0 renal) of 1.56 µM, a TGI (786-0 renal) of 2.98 µM and a GI50 (MDA-MB-468 breast) of 2.09 µM. The TGI (MDA-MB-468 breast) was 3.62 µM, the GI50 (HCT-15 colon) was 3.5 µM and the TGI (HCT-15 colon) was 8.85 µM. The GI50 (A498 renal) was 2.07 µM, the TGI (A498 renal) was 3.53 µM and the GI50 (NCI-H322M lung) was 1.93 µM. It also gave a TGI (NCI-H322M lung) of 4.22 µM, a GI50 (SK-MEL-5 melanoma) of 1.46 µM and a TGI (SK-MEL-5 melanoma) of 2.79 µM. For the same compound, the GI50 (HOP-62 NSCLC) was 1.59 µM, the TGI (HOP-62 NSCLC) was 3.31 µM and the GI50 (U251 glioblastoma) was 1.64 µM. For the same compound, the TGI (U251 glioblastoma) was 3.03 µM, the GI50 (SK-OV-3 ovarian) was 1.16 µM and the TGI (SK-OV-3 ovarian) was 2.44 µM. The GI50 (SW-620 colon) was 1.84 µM, the TGI (SW-620 colon) was 3.33 µM and the GI50 (OVCAR-4 ovarian) was 1.79 µM. It also gave a TGI (OVCAR-4 ovarian) of 4.07 µM, a GI50 (ACHN renal) of 2.15 µM and a TGI (ACHN renal) of 4.66 µM. It also gave a GI50 (IGROV1 ovarian) of 0.628 µM, a TGI (IGROV1 ovarian) of 1.93 µM and a GI50 (MDA-MB-435 melanoma) of 1.96 µM. The TGI (MDA-MB-435 melanoma) was 3.41 µM, the GI50 (KM12 colon) was 0.025 µM and the TGI (KM12 colon) was 1.38 µM. The GI50 (TK-10 renal) was 2.27 µM, the TGI (TK-10 renal) was 4.56 µM and the GI50 (HL-60(TB) leukemia) was 2.48 µM. For the same compound, the TGI (HL-60(TB) leukemia) was 3.96 µM, the GI50 (T-47D breast) was 1.37 µM and the TGI (T-47D breast) was 2.69 µM. It also gave a GI50 (CCRF-CEM leukemia) of 1.62 µM, a TGI (CCRF-CEM leukemia) of 2.99 µM and a GI50 (LOX IMVI melanoma) of 1.62 µM. It also gave a TGI (LOX IMVI melanoma) of 3.01 µM, a GI50 (MDA-MB-231 breast) of 1.52 µM and a TGI (MDA-MB-231 breast) of 3.3 µM. For the same compound, the GI50 (OVCAR-8 ovarian) was 1.81 µM, the TGI (OVCAR-8 ovarian) was 3.35 µM and the GI50 (SNB-19 CNS) was 2.02 µM. The TGI (SNB-19 CNS) was 4.48 µM, the GI50 (SF-295 CNS) was 1.89 µM and the TGI (SF-295 CNS) was 3.4 µM. It also gave a GI50 (HOP-92 NSCLC) of 1.37 µM, a TGI (HOP-92 NSCLC) of 2.87 µM and a GI50 (HS 578T breast) of 1.31 µM. For the same compound, the TGI (HS 578T breast) was 2.6 µM, the GI50 (A549 NSCLC) was 1.78 µM and the TGI (A549 NSCLC) was 3.3 µM. It also gave a GI50 (UACC-257 melanoma) of 1.78 µM, a TGI (UACC-257 melanoma) of 3.18 µM and a GI50 (SNB-75 CNS) of 0.949 µM. For the same compound, the TGI (SNB-75 CNS) was 2.37 µM, the GI50 (PC-3 prostate) was 2.57 µM and the TGI (PC-3 prostate) was 7.41 µM. The GI50 (EKVX NSCLC) was 2.1 µM, the TGI (EKVX NSCLC) was 4.87 µM and the GI50 (NCI-H460 NSCLC) was 1.69 µM. The TGI (NCI-H460 NSCLC) was 3.15 µM, the GI50 (NCI/ADR-RES ovarian) was > 100 µM and the TGI (NCI/ADR-RES ovarian) was > 100 µM. The GI50 (MCF7 breast) was 1.41 µM, the TGI (MCF7 breast) was 2.92 µM and the GI50 (HCC-2998 colon) was 1.47 µM. It also gave a TGI (HCC-2998 colon) of 3.01 µM, a GI50 (UACC-62 melanoma) of 1.8 µM and a TGI (UACC-62 melanoma) of 3.2 µM. For the same compound, the GI50 (MALME-3M melanoma) was 1.64 µM, the TGI (MALME-3M melanoma) was 3.01 µM and the GI50 (SF-539 CNS) was 0.838 µM. It also gave a TGI (SF-539 CNS) of 2.11 µM, a GI50 (UO-31 renal) of 3.69 µM and a TGI (UO-31 renal) of 10.4 µM. The GI50 (RXF 393 renal) was 1.24 µM, the TGI (RXF 393 renal) was 2.52 µM and the GI50 (OVCAR-3 ovarian) was 1.62 µM. The TGI (OVCAR-3 ovarian) was 3.03 µM, the GI50 (COLO 205 colon) was 0.891 µM and the TGI (COLO 205 colon) was 2.14 µM. The GI50 (SK-MEL-28 melanoma) was 2.17 µM, the TGI (SK-MEL-28 melanoma) was 3.63 µM and the GI50 (RPMI-8226 leukemia) was 1.45 µM. It also gave a TGI (RPMI-8226 leukemia) of 2.78 µM, a GI50 (NCI-H226 lung) of 0.111 µM and a TGI (NCI-H226 lung) of 11.6 µM. For the same compound, the GI50 (HCT-116 colon) was 1.66 µM, the TGI (HCT-116 colon) was 3.08 µM and the GI50 (K-562 leukemia) was 1.45 µM. The TGI (K-562 leukemia) was 2.79 µM, the GI50 (HT29 colon) was 1.52 µM and the TGI (HT29 colon) was 2.93 µM. For the same compound, the GI50 (NCI-H23 lung) was 1.91 µM, the TGI (NCI-H23 lung) was 3.75 µM and the GI50 (SF-268 CNS) was 1.23 µM. The TGI (SF-268 CNS) was 2.7 µM, the GI50 (DU-145 prostate) was 2.33 µM and the TGI (DU-145 prostate) was 4.97 µM. It also gave a GI50 (CAKI-1 renal) of 1.67 µM, a TGI (CAKI-1 renal) of 3.08 µM and a GI50 (OVCAR-5 ovarian) of 1.89 µM. It also gave a TGI (OVCAR-5 ovarian) of 3.94 µM, a GI50 (NCI-H522 lung) of 1.88 µM and a TGI (NCI-H522 lung) of 3.55 µM. It also gave a GI50 (SN12C renal) of 2.44 µM, a TGI (SN12C renal) of 8.74 µM and a GI50 (M14 melanoma) of 1.65 µM. It also gave a TGI (M14 melanoma) of 3.03 µM, a GI50 (MOLT-4 leukemia) of 1.2 µM and a TGI (MOLT-4 leukemia) of 2.44 µM. For the same compound, the GI50 (BT-549 breast) was 1.17 µM and the TGI (BT-549 breast) was 2.42 µM.
